Experimental data as given in ChEMBL document CHEMBL1201862, “PubChem BioAssay data set” (2004).
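Test compounds were applied to cells in 96-well plates for 48 hours at 5 doses. Abbreviation: GI50, concentration required for 50% inhibition of growth.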 Active and inactive are the calls of the source. No stated cut-off is given here; in the data, active = GI50 up to about 1.1 µM and inactive = higher.

Columns and labels:
Experiment in all cases: NCI tumour cell line growth inhibition, 48 h
[1] = tested on: NCI-H23
[2] = tested on: SF-295
[3] = tested on: CCRF-CEM
[4] = tested on: TK-10
[5] = tested on: HOP-62
[6] = tested on: SN12C
[7] = tested on: UO-31
[8] = tested on: EKVX
[9] = tested on: IGROV-1
[10] = tested on: RXF 393
[11] = tested on: MDA-N
[12] = tested on: RPMI-8226
[13] = tested on: OVCAR-8
[14] = tested on: UACC-257
[15] = tested on: SK-MEL-5
[16] = tested on: OVCAR-5
[17] = tested on: K562
[18] = tested on: ACHN
[19] = tested on: SF-268
[20] = tested on: 786-0

Structure (SMILES)	GI50 [1]	GI50 [2]	GI50 [3]	GI50 [4]	GI50 [5]	GI50 [6]	GI50 [7]	GI50 [8]	GI50 [9]	GI50 [10]	GI50 [11]	GI50 [12]	GI50 [13]	GI50 [14]	GI50 [15]	GI50 [16]	GI50 [17]	GI50 [18]	GI50 [19]	GI50 [20]
O=C1NCCCc2nonc21	> 100 µM (inactive)	> 100 µM (inactive)	> 100 µM (inactive)	> 100 µM (inactive)	> 100 µM (inactive)	> 100 µM (inactive)	> 100 µM (inactive)	> 100 µM (inactive)	> 100 µM (inactive)	> 100 µM (inactive)	> 100 µM (inactive)	> 100 µM (inactive)	> 100 µM (inactive)	> 100 µM (inactive)	> 100 µM (inactive)	> 100 µM (inactive)	> 100 µM (inactive)	> 100 µM (inactive)	> 100 µM (inactive)	> 100 µM (inactive)
c1nnc(NCNc2nncs2)s1	47.9 µM (inactive)	28.1 µM (inactive)	61.1 µM (inactive)	86.9 µM (inactive)	46.5 µM (inactive)	30.9 µM (inactive)	53.3 µM (inactive)	23.3 µM (inactive)	49.1 µM (inactive)	29 µM (inactive)	35.2 µM (inactive)	72.6 µM (inactive)	69.5 µM (inactive)	47.8 µM (inactive)	62.2 µM (inactive)	79.3 µM (inactive)	42.8 µM (inactive)	29.4 µM (inactive)	> 100 µM (inactive)	46.8 µM (inactive)
Cc1cc(NS(=O)(=O)c2ccc(NC(=O)c3ccc4nc5ccccc5c(Nc5ccc(S(=O)(=O)N=C(N)N)cc5)c4c3)cc2)no1	18.8 µM (inactive)	16.9 µM (inactive)	11.2 µM (inactive)	25.5 µM (inactive)	17.5 µM (inactive)	17 µM (inactive)	17.2 µM (inactive)	16.4 µM (inactive)	16.2 µM (inactive)	15.3 µM (inactive)	19.5 µM (inactive)	23.7 µM (inactive)	18.2 µM (inactive)	26.2 µM (inactive)	16.2 µM (inactive)	17.5 µM (inactive)	10.6 µM (inactive)	13.6 µM (inactive)	19 µM (inactive)	15.2 µM (inactive)
C(=N\c1nc2cc3sc(/N=C/c4ccccc4)nc3cc2s1)/c1ccccc1	39 µM (inactive)	> 100 µM (inactive)	2.49 µM (inactive)	> 50.6 µM (inactive)	> 68.2 µM (inactive)	69.3 µM (inactive)	62.5 µM (inactive)	37.7 µM (inactive)	> 63.2 µM (inactive)	> 100 µM (inactive)	> 100 µM (inactive)	29.7 µM (inactive)	> 66.2 µM (inactive)	> 100 µM (inactive)	25.5 µM (inactive)	> 69.2 µM (inactive)	29.1 µM (inactive)	55.8 µM (inactive)	> 100 µM (inactive)	> 100 µM (inactive)
CC(=O)OCC(OC(C)=O)C(OC(C)=O)C(OC(C)=O)C(C=NN(C(C)=O)S(=O)(=O)c1ccc(/C=C2\NC(=O)NC2=O)cc1)OC(C)=O (stereo not given)	> 100 µM (inactive)	> 100 µM (inactive)	84.3 µM (inactive)	> 100 µM (inactive)	> 100 µM (inactive)	> 100 µM (inactive)	> 100 µM (inactive)	> 100 µM (inactive)	> 100 µM (inactive)	> 100 µM (inactive)	> 100 µM (inactive)	> 100 µM (inactive)	> 100 µM (inactive)	> 100 µM (inactive)	> 100 µM (inactive)	> 100 µM (inactive)	> 100 µM (inactive)	> 100 µM (inactive)	> 100 µM (inactive)	> 100 µM (inactive)
Cc1cc(N(CCC#N)CCC#N)ccc1/C=N/NC(=O)c1ccccc1	25.2 µM (inactive)	12.9 µM (inactive)	23.1 µM (inactive)	48.3 µM (inactive)	31.8 µM (inactive)	28.5 µM (inactive)	> 62.1 µM (inactive)	48.9 µM (inactive)	12.9 µM (inactive)	28.4 µM (inactive)	2.86 µM (inactive)	58.1 µM (inactive)	23.5 µM (inactive)	> 48.9 µM (inactive)	22 µM (inactive)	> 80.5 µM (inactive)	3.76 µM (inactive)	85.3 µM (inactive)	> 48.8 µM (inactive)	31.6 µM (inactive)
CC(=O)Oc1c2c(c(CC=C(C)C)c3c1C(=O)C1=C[C@@H]4CC5C(C)(C)OC(C/C=C(/C)C(=O)O)(C4=O)[C@@]15O3)OC(C)(CCC=C(C)C)C=C2 (stereo not given in full)	0.197 µM (active)	0.454 µM (active)	0.101 µM (active)	0.134 µM (active)	0.832 µM (active)	0.181 µM (active)	0.173 µM (active)	0.249 µM (active)	0.0998 µM (active)	0.144 µM (active)	0.16 µM (active)	0.184 µM (active)	0.184 µM (active)	0.384 µM (active)	0.378 µM (active)	0.361 µM (active)	0.409 µM (active)	0.102 µM (active)	0.408 µM (active)	0.0989 µM (active)
